Results reported in the supplement of paper PMC10949913.

Legend:
Conditions in all cases: 48 h
CU-ACC1 [1] = assay: AC50 viability; higher = less potent
Summary of the method: (§1)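 Luminescence from CellTiter-Glo, read after 48 h, measured three adrenocortical carcinoma cell lines treated in 1,536-well plates with library compounds at 11 concentrations. Values were normalised per plate to vehicle and empty-well controls. The AC50 and area under the curve come from fitted concentration-response curves in inhibitory or non-responding classes only.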

CU-ACC2 [2] = assay: AC50 viability; higher = less potent
Summary of the method: as §1

NCI-H295R [3] = assay: AC50 viability; higher = less potent
Summary of the method: as §1

CU-ACC1 [4] = assay: area under concentration-response curve (viability) (AUC (a.u.)); higher = less active
Summary of the method: as §1

CU-ACC2 [5] = assay: as above
Summary of the method: as §1

NCI-H295R [6] = assay: as above
Summary of the method: as §1

Structure (SMILES)	AC50 viability (CU-ACC1 [1])	AC50 viability (CU-ACC2 [2])	AC50 viability (NCI-H295R [3])	area under concentration-response curve (CU-ACC1 [4])	area under concentration-response curve (CU-ACC2 [5])	area under concentration-response curve (NCI-H295R [6])
CC(C)C1NC(=O)C(NC(=O)C2=C3\N=C\4/C(=C(C)\C(=O)\C(=C4C(=O)NC5C(C)OC(=O)C(C(C)C)N(C)C(=O)CN(C)C(=O)C6CCCN6C(=O)C(NC5=O)C(C)C)N)OC3=C(C)C=C2)C(C)OC(=O)C(C(C)C)N(C)C(=O)CN(C)C(=O)C7CCCN7C1=O (configuration not stated)	0.0512 µM	0.00812 µM	0.144 µM	230	152	307
CNC(=O)c1ccccc1Sc1ccc2c(/C=C/c3ccccn3)n[nH]c2c1	37.2 µM	16.6 µM	3.72 µM	368	493	461
COc1cccc2cc(-c3nc([C@H]4CC[C@H](C(=O)O)CC4)n4ncnc(N)c34)[nH]c12	4.17 µM	10.5 µM	5.9 µM	454	466	492
COc1cc2c(Oc3ccc(NC(=O)C4(C(=O)Nc5ccc(F)cc5)CC4)cc3F)ccnc2cc1OCCCN1CCOCC1	10.5 µM	9.34 µM	6.61 µM	469	549	436
c1ccc(-c2ccc(CNc3nc(-c4ccccn4)nnc3-c3ccccc3)cc2)cc1	2.35 µM	14.8 µM	4.17 µM	385	504	461
CC(=O)Nc1ccc([C@H](C)C(=O)Nc2ncc(C(C)C)s2)cc1	9.34 µM	5.25 µM	18.6 µM	448	376	485
CN1CCCN(C(=O)c2cccc(-c3ccc(/C=C4/C(=O)Nc5ccc(Cl)cc54)o3)c2)CC1	29.5 µM	23.5 µM	20.9 µM	392	379	361
COc1cc(C(=O)NC2CCN(C)CC2)c(F)cc1Nc1ncc2c(n1)N(C1CCCC1)CC(F)(F)C(=O)N2C	16.6 µM	14.8 µM	4.68 µM	412	393	400
Cc1ccc([S+](=O)([O-])Nc2cc(Cl)ccc2C(=O)Nc2nc(-c3ccccc3)cs2)cc1	9.34 µM	0.263 µM	2.63 µM	362	306	340
COCCN1CCN(Cc2ccc(-c3n[nH]c4c3C(=O)c3c(NC(=O)NN5CCOCC5)cccc3-4)cc2)CC1	0.468 µM	0.148 µM	0.833 µM	301	295	372
ClC1=CC\2=C(NC(=O)\C(=C2N[C@@H]3CN4CCC3CC4)C5=NC6=C([NH]5)C=CC=C6)C=C1	16.6 µM	5.25 µM	0.118 µM	404	365	404
COc1cc2c(Nc3ccc(Br)cc3F)ncnc2cc1OCC1CCN(C)CC1	14.8 µM	16.6 µM	16.6 µM	401	418	403
Cc1c(CN2CCN([S+](C)(=O)[O-])CC2)sc2c(N3CCOCC3)nc(-c3cnc(N)nc3)nc12	0.525 µM	0.468 µM	1.18 µM	282	403	333
C=C1C(=O)O[C@@H]2[C@H]3O[C@]3(C)CC/C=C(\C)CC[C@@H]12	14.8 µM	7.42 µM	9.34 µM	375	522	497
COc1cc(F)ccc1-c1ncnc(Nc2cccc(C[S+](C)(=N)[O-])c2)n1 (configuration not stated)	1.86 µM	0.934 µM	4.17 µM	388	380	428
CCOC(=O)CCNc1cc(N2CCc3ccccc3CC2)nc(-c2ccccn2)n1	3.32 µM	16.6 µM	3.72 µM	384	534	444
COc1ccc([S+](=O)([O-])N(CCO)c2ccccc2CN(C)C/C=C/c2ccc(Cl)cc2)cc1	14.8 µM	23.5 µM	20.9 µM	436	539	425
CNc1nc(-c2ccc3c(N)n[nH]c3c2)cc(N2C[C@@H](C(=O)NC3CCCCC3)CC[C@H]2C)n1	20.9 µM	20.9 µM	18.6 µM	458	544	506
CCC(C)SSc1ncc[nH]1 (configuration not stated)	33.2 µM	20.9 µM	23.5 µM	503	507	491
C[C@@H](NCc1cc2ccccc2[nH]1)c1cccc2ccccc12	20.9 µM	20.9 µM	23.5 µM	428	479	428
Cn1cc(CNCC2CCN(c3ncc(C(=O)NO)cn3)CC2)c2ccccc21	0.661 µM	0.417 µM	0.661 µM	325	347	443
Cc1cc(I)ccc1Nc1c(C(=O)NOCC2CC2)cc(F)c(F)c1F	16.6 µM	18.6 µM	8.33 µM	445	554	490
Cc1ccc(C(=O)Nc2ccc(CN3CCN(C)CC3)c(C(F)(F)F)c2)cc1C#Cc1cnc2cccnn12	7.42 µM	9.34 µM	7.42 µM	402	524	487
Nc1ccc(C(=O)c2cc3c(ccc4ccccc43)[nH]2)cc1	6.05 µM	38.2 µM	12.1 µM	466	471	419
Fc1cc(-c2cccc3ncc(-c4cnn(C5CCNCC5)c4)nc23)cc(F)c1CN1CCOCC1	11.8 µM	13.2 µM	8.33 µM	390	437	428
CCc1cnn2c(NCc3ccc[n+]([O-])c3)cc(N3CCCC[C@H]3CCO)nc12	0.00263 µM	0.0059 µM	0.00417 µM	177	167	158
NC(CO)(CO)CCc1ccc(Sc2cccc(OCc3ccccc3)c2)cc1Cl	14.8 µM	18.6 µM	10.5 µM	423	491	449
